# Assay results reported in patent US8551510B2, “Bed bug control and repellency” (Bedoukian Research, Inc., priority 2009, dated 2013).
# System: bed bugs
# Test: Choice test with unconcealed bed bugs on filter paper discs, test compound in acetone vs. acetone only (percent repellency)
# Format: in vivo
# Details: chemical at 0.5% in acetone on filter paper; 0.5 hr post-treatment; read-out: percent repellency at 0.5 hr
# Experimental: This test was undertaken employing unconcealed bugs. Two semicircular discs of filter paper, 9 cm in radius treated with 1 ml of solution to wet the entire surface, one treated with an acetone solution of the test compound and one only acetone treated were placed on the lid of a Petri dish. Five replicates of ten (10) bed bugs were release into the center of the lids of the Petri dish with a choice of the test compound treated or only acetone treated substrate. The distribution of bed bugs was recorded at ½, […], 2, 6 and 24 hours post-treatment. Paired t-tests were conducted for each treatment to ascertain whether or not there was a statistically significant difference in the number of bed bugs on the treated vs. untreated discs.
row,Structure (SMILES),pest or weed control at 0.5 % [%]
1,"CCCCCCCCC(=O)C(C)=O [2,3-Undecanedione, reference compound]",90
2,"O=C1CCCC1C1CCCC1 (stereo not drawn) [2-Cyclopentylcyclopentanone, 2-cyclopentylcyclopentanone]",90
3,"CC(C)=CCCC(C)=CCC1CCCC1=O (stereo not drawn) [2-Geranylcyclopentanone (Apritone), 2-(3,7-dimethylocta-2,6-dienyl)cyclopentan-1-one]",100
4,"CCCCCC=CCC1CCCC1=O (stereo not drawn) [2-Octenylcyclopentanone, 2-(2-octen-1-yl)cyclopentanone]",100
5,CCCCCCC=CC(C)=O [3-Decen-2-one],82
6,"CC(=O)C(C)=CC1C(C)=CCCC1(C)C (stereo not drawn) [Alpha Isomethylionone, 3-methyl-4-(2,6,6-trimethyl-2-cyclohexen-1-yl)-3-buten-2-one]",100
7,"CCC(=O)/C(C)=C/C1C(C)CC=CC1(C)C (stereo not drawn) [Dimethylionone, (E)-2-methyl-1-(2,2,6-trimethyl-1-cyclohex-3-enyl)pent-1-en-3-one]",90
8,"CC(=O)CCC=C(C)CCC=C(C)C [Geranylacetone, 6,10-dimethyl-5,9-undecadien-2-one]",100
9,"CC1=CCCC(C)(C)C1/C=C/C(=O)CC(C)C (stereo not drawn) [Isobutylionone, (E)-5-Methyl-1-(2,6,6-trimethyl-1-cyclohex-2-enyl) hex-1-en-3-one]",100
10,"CC1(C)C2CCC3(C2)C1C(=O)CCC3(C)C (stereo not drawn) [Isolongifolanone, 2,2,7,7-tetramethyltricyclo[6.2.1.01,6]undecan-5-one]",90
11,"CCCCCCCCCCC(C)=O [Methyl decyl ketone, 2-dodecanone]",100
12,"CCCCCCCCCCCC(C)=O [Methyl undecyl ketone, 2-tridecanone]",100
13,"CC1=CCC(C(C)CC2CCCC2=O)CC1 (stereo not drawn) [Nectaryl ™, 2-(2-(4-methyl-3-cyclohexen-1-yl)propyl) cyclopentanone]",87.8

# Same assay, conditions: chemical at 0.5% in acetone on filter paper; 1 hr post-treatment; read-out: percent repellency at 1 hr
row,Structure (SMILES),pest or weed control at 0.5 % [%]
1,"CCCCCCCCC(=O)C(C)=O [2,3-Undecanedione, reference compound]",60
2,"O=C1CCCC1C1CCCC1 (stereo not drawn) [2-Cyclopentylcyclopentanone, 2-cyclopentylcyclopentanone]",90
3,"CC(C)=CCCC(C)=CCC1CCCC1=O (stereo not drawn) [2-Geranylcyclopentanone (Apritone), 2-(3,7-dimethylocta-2,6-dienyl)cyclopentan-1-one]",100
4,"CCCCCC=CCC1CCCC1=O (stereo not drawn) [2-Octenylcyclopentanone, 2-(2-octen-1-yl)cyclopentanone]",100
5,CCCCCCC=CC(C)=O [3-Decen-2-one],84
6,"CC(=O)C(C)=CC1C(C)=CCCC1(C)C (stereo not drawn) [Alpha Isomethylionone, 3-methyl-4-(2,6,6-trimethyl-2-cyclohexen-1-yl)-3-buten-2-one]",100
7,"CCC(=O)/C(C)=C/C1C(C)CC=CC1(C)C (stereo not drawn) [Dimethylionone, (E)-2-methyl-1-(2,2,6-trimethyl-1-cyclohex-3-enyl)pent-1-en-3-one]",96
8,"CC(=O)CCC=C(C)CCC=C(C)C [Geranylacetone, 6,10-dimethyl-5,9-undecadien-2-one]",100
9,"CC1=CCCC(C)(C)C1/C=C/C(=O)CC(C)C (stereo not drawn) [Isobutylionone, (E)-5-Methyl-1-(2,6,6-trimethyl-1-cyclohex-2-enyl) hex-1-en-3-one]",98
10,"CC1(C)C2CCC3(C2)C1C(=O)CCC3(C)C (stereo not drawn) [Isolongifolanone, 2,2,7,7-tetramethyltricyclo[6.2.1.01,6]undecan-5-one]",88
11,"CCCCCCCCCCC(C)=O [Methyl decyl ketone, 2-dodecanone]",100
12,"CCCCCCCCCCCC(C)=O [Methyl undecyl ketone, 2-tridecanone]",100
13,"CC1=CCC(C(C)CC2CCCC2=O)CC1 (stereo not drawn) [Nectaryl ™, 2-(2-(4-methyl-3-cyclohexen-1-yl)propyl) cyclopentanone]",95.9

# Same assay, conditions: chemical at 0.5% in acetone on filter paper; 6 hr post-treatment; read-out: percent repellency at 6 hr
row,Structure (SMILES),pest or weed control at 0.5 % [%]
1,"CCCCCCCCC(=O)C(C)=O [2,3-Undecanedione, reference compound]",60
2,"O=C1CCCC1C1CCCC1 (stereo not drawn) [2-Cyclopentylcyclopentanone, 2-cyclopentylcyclopentanone]",76
3,"CC(C)=CCCC(C)=CCC1CCCC1=O (stereo not drawn) [2-Geranylcyclopentanone (Apritone), 2-(3,7-dimethylocta-2,6-dienyl)cyclopentan-1-one]",100
4,"CCCCCC=CCC1CCCC1=O (stereo not drawn) [2-Octenylcyclopentanone, 2-(2-octen-1-yl)cyclopentanone]",100
5,CCCCCCC=CC(C)=O [3-Decen-2-one],78
6,"CC(=O)C(C)=CC1C(C)=CCCC1(C)C (stereo not drawn) [Alpha Isomethylionone, 3-methyl-4-(2,6,6-trimethyl-2-cyclohexen-1-yl)-3-buten-2-one]",100
7,"CCC(=O)/C(C)=C/C1C(C)CC=CC1(C)C (stereo not drawn) [Dimethylionone, (E)-2-methyl-1-(2,2,6-trimethyl-1-cyclohex-3-enyl)pent-1-en-3-one]",96
8,"CC(=O)CCC=C(C)CCC=C(C)C [Geranylacetone, 6,10-dimethyl-5,9-undecadien-2-one]",100
9,"CC1=CCCC(C)(C)C1/C=C/C(=O)CC(C)C (stereo not drawn) [Isobutylionone, (E)-5-Methyl-1-(2,6,6-trimethyl-1-cyclohex-2-enyl) hex-1-en-3-one]",94
10,"CC1(C)C2CCC3(C2)C1C(=O)CCC3(C)C (stereo not drawn) [Isolongifolanone, 2,2,7,7-tetramethyltricyclo[6.2.1.01,6]undecan-5-one]",98
11,"CCCCCCCCCCC(C)=O [Methyl decyl ketone, 2-dodecanone]",100
12,"CCCCCCCCCCCC(C)=O [Methyl undecyl ketone, 2-tridecanone]",100
13,"CC1=CCC(C(C)CC2CCCC2=O)CC1 (stereo not drawn) [Nectaryl ™, 2-(2-(4-methyl-3-cyclohexen-1-yl)propyl) cyclopentanone]",100

# Same assay, conditions: chemical at 0.5% in acetone on filter paper; 24 hr post-treatment; read-out: percent repellency at 24 hr
row,Structure (SMILES),pest or weed control at 0.5 % [%]
1,"CCCCCCCCC(=O)C(C)=O [2,3-Undecanedione, reference compound]",90
2,"O=C1CCCC1C1CCCC1 (stereo not drawn) [2-Cyclopentylcyclopentanone, 2-cyclopentylcyclopentanone]",70
3,"CC(C)=CCCC(C)=CCC1CCCC1=O (stereo not drawn) [2-Geranylcyclopentanone (Apritone), 2-(3,7-dimethylocta-2,6-dienyl)cyclopentan-1-one]",100
4,"CCCCCC=CCC1CCCC1=O (stereo not drawn) [2-Octenylcyclopentanone, 2-(2-octen-1-yl)cyclopentanone]",100
5,CCCCCCC=CC(C)=O [3-Decen-2-one],76
6,"CC(=O)C(C)=CC1C(C)=CCCC1(C)C (stereo not drawn) [Alpha Isomethylionone, 3-methyl-4-(2,6,6-trimethyl-2-cyclohexen-1-yl)-3-buten-2-one]",84
7,"CCC(=O)/C(C)=C/C1C(C)CC=CC1(C)C (stereo not drawn) [Dimethylionone, (E)-2-methyl-1-(2,2,6-trimethyl-1-cyclohex-3-enyl)pent-1-en-3-one]",92
8,"CC(=O)CCC=C(C)CCC=C(C)C [Geranylacetone, 6,10-dimethyl-5,9-undecadien-2-one]",100
9,"CC1=CCCC(C)(C)C1/C=C/C(=O)CC(C)C (stereo not drawn) [Isobutylionone, (E)-5-Methyl-1-(2,6,6-trimethyl-1-cyclohex-2-enyl) hex-1-en-3-one]",94
10,"CC1(C)C2CCC3(C2)C1C(=O)CCC3(C)C (stereo not drawn) [Isolongifolanone, 2,2,7,7-tetramethyltricyclo[6.2.1.01,6]undecan-5-one]",98
11,"CCCCCCCCCCC(C)=O [Methyl decyl ketone, 2-dodecanone]",100
12,"CCCCCCCCCCCC(C)=O [Methyl undecyl ketone, 2-tridecanone]",100
13,"CC1=CCC(C(C)CC2CCCC2=O)CC1 (stereo not drawn) [Nectaryl ™, 2-(2-(4-methyl-3-cyclohexen-1-yl)propyl) cyclopentanone]",100

# Same assay, conditions: chemical at 0.5%; average of 0.5, 1, 6 and 24 hr; read-out: percent repellency, Average
row,Structure (SMILES),pest or weed control at 0.5 % [%]
1,"CCCCCCCCC(=O)C(C)=O [2,3-Undecanedione, reference compound]",75
2,"O=C1CCCC1C1CCCC1 (stereo not drawn) [2-Cyclopentylcyclopentanone, 2-cyclopentylcyclopentanone]",81
3,"CC(C)=CCCC(C)=CCC1CCCC1=O (stereo not drawn) [2-Geranylcyclopentanone (Apritone), 2-(3,7-dimethylocta-2,6-dienyl)cyclopentan-1-one]",100
4,"CCCCCC=CCC1CCCC1=O (stereo not drawn) [2-Octenylcyclopentanone, 2-(2-octen-1-yl)cyclopentanone]",100
5,CCCCCCC=CC(C)=O [3-Decen-2-one],80
6,"CC(=O)C(C)=CC1C(C)=CCCC1(C)C (stereo not drawn) [Alpha Isomethylionone, 3-methyl-4-(2,6,6-trimethyl-2-cyclohexen-1-yl)-3-buten-2-one]",96
7,"CCC(=O)/C(C)=C/C1C(C)CC=CC1(C)C (stereo not drawn) [Dimethylionone, (E)-2-methyl-1-(2,2,6-trimethyl-1-cyclohex-3-enyl)pent-1-en-3-one]",93.5
8,"CC(=O)CCC=C(C)CCC=C(C)C [Geranylacetone, 6,10-dimethyl-5,9-undecadien-2-one]",100
9,"CC1=CCCC(C)(C)C1/C=C/C(=O)CC(C)C (stereo not drawn) [Isobutylionone, (E)-5-Methyl-1-(2,6,6-trimethyl-1-cyclohex-2-enyl) hex-1-en-3-one]",96.5
10,"CC1(C)C2CCC3(C2)C1C(=O)CCC3(C)C (stereo not drawn) [Isolongifolanone, 2,2,7,7-tetramethyltricyclo[6.2.1.01,6]undecan-5-one]",93
11,"CCCCCCCCCCC(C)=O [Methyl decyl ketone, 2-dodecanone]",100
12,"CCCCCCCCCCCC(C)=O [Methyl undecyl ketone, 2-tridecanone]",100
13,"CC1=CCC(C(C)CC2CCCC2=O)CC1 (stereo not drawn) [Nectaryl ™, 2-(2-(4-methyl-3-cyclohexen-1-yl)propyl) cyclopentanone]",95.9

# Same assay, conditions: chemical at 1.0%; 2 hour post-treatment (Table 2)
row,Structure (SMILES),percent repellency at 2 hour [%]
1,"CCCCCC1C(=O)CCC1CC(=O)OCC=C(C)C (stereo not drawn) [Prenyl dihydrojasmonate, 3-methylbut-2-enyl 2-(3-oxo-2-pentylcyclopentyl)acetate]",82
